Measured values reported in patent US9468209B2, “Method for eradicating weeds with derivatives of 3-acetyl-5-sec-butyl-4-hydroxy-3-pyrrolin-2-one” (priority 2012, dated 2016).

What was measured:
[1] = tested on: monocotyledon weeds (such as common crabgrass and barnyardgrass) and dicotyledonous weeds including Crofton weeds; conditions: concentration of 50 μg/mL; cited from earlier work
Hill reaction [2] = conditions: versus 3-(3,4-dichlorophenyl)-1,1-dimethylurea (DCMU); cited from earlier work
rat = conditions: called moderate toxicity; cited from earlier work
Crofton weed [3] = assay: Needle puncture pathogenic test on slightly wounded leaf of Crofton weed; format: in vivo; conditions: Crofton weed leaf; for Avg. diameter of the spot after 24 h / Time of disease spot to occur: analogs with formula (I) and (II); for Time of Disease spot / Average diameter of spot after 24 h: 50 μg/mL, 25° C., natural light
Description: 3-acetyl-5-sec-butyl-4-hydroxy-3-pyrrolin-2-one analogs were dissolved in a small amount of methanol and diluted with water to a concentration of 5-100 μg/g. A pathogenic test was conducted by placing the toxic liquid on the slightly wounded leaf of Crofton weed with a needle. The test has shown that the pathogenic capability of 3-acetyl-5-sec-butyl-4-hydroxy-3-pyrrolin-2-one analogs with respect to Crofton weed increases with the increase of concentration. The spot diameter caused on the leaf of Crofton weed after 24 hours was 2 mm at 50 μg/g.
3-acetyl-5-sec-butyl-4-hydroxy-3-pyrrolin-2-one analogue (Table 3, compounds 10-57) was dissolved in small amount of methanol. The solution was then diluted with distilled water to a concentration of 50 μg/mL. Methanol solution with same concentration and pure distilled water were used as control of the experiment. A pathogenic test was conducted by placing the toxic liquid on the slightly wounded leaf of Crofton weed with a needle. The experiment was carried out at 25° C. under the natural light and each test was repeated 6 times. It was measure the diameter of the spot after 24 h. […] The size of the side chain also has an effect on their activity.
Fourteen salts of 3-acetyl-5-sec-butyl-4-hydroxy-3-pyrrolin-2-one analogs were dissolved in small amount of methanol and diluted with distilled water to a concentration of 50 μg/mL. Methanol/water mixture was also prepared and used as control. Needle puncture method was used for the test on the small pieces of Crofton weed. Each treatment was repeated six times or more. The test samples were kept under natural light at 25° C. for 24 hours. The diameters of damaged spot of the plant leaves were measured by vernier caliper.

Crofton weed [4] = assay: Spray on leaves and stems of three-leaf-stage Crofton weed seedlings grown in pots in a greenhouse; format: in vivo; parameters: key: 4: Plant completely dead; 3: Two thirds of the plant stems and leaves dried out; 2: Half of the plant stems and leaves dried out; 1: One third of the plant stems and leaves dried out; 0: No damage at all; conditions: 50 μg/mL spray, assessed two days later
Description: Compounds 1, 2, 3, and 40 were separately dissolved in a small amount of methanol. The solutions were then diluted with distilled water to a concentration of 50 μg/mL. A mixture of methanol and water in the same ratio as the sample solution was also prepared and used as control in the experiment. The solutions were sprayed on leaves and stems of three-leaf-stage Crofton weed seedlings. All the plants were grown in pot in a greenhouse. The leaves were properly wet by the solutions for consistency and the treatment was repeated 3 times. The measurement of the plant damage was calculated by the formula: Damage Index=Σ(damage level×number of plants)×100/4/number of plants in each treatment.

Hill reaction [5] = assay: Hill reaction activity of treated Crofton weed leaves; format: biochemical; conditions: 50 μg/mL, strong light 12 hours
Description: (§1) Compounds 10-57 were dissolved in small amount of methanol. The solutions were then diluted with distilled water to a concentration of 50 μg/mL. A mixture of methanol and water in the same ratio as the sample solution was also prepared and used as control in the experiment. The healthy leaves of Crofton weed were washed in water for 30 minutes and then rinsed with distilled water. The clean and tissue dried leaves were placed in petri dish with the back-side of the leaves facing up. Wet filter paper was also placed in the in petri dish for moisture control. Water, methanol and chemical solutions of the analogues were applied to the back-side of each leaf. Test sample was then placed in vacuum chamber at 25° C. for 15 min followed by exposure to the strong light (400 μM m^−2 s^−1) for 12 hours. The leaf sample went through a series of test, and the Hill reaction rate, the electron transfer activity and fluorescence of chlorophyll were measured. Four leaves were used for each treatment and each test was repeated three times.

photosystem II = assay: PSII oxygen evolution / electron transfer activity of treated Crofton weed leaves; format: biochemical; conditions: 50 μg/mL, strong light 12 hours
Description: as §1

[6] = tested on: fluorescence of chlorophyll; assay: Fluorescence of chlorophyll of treated Crofton weed leaves; format: biochemical; conditions: 50 μg/mL, strong light 12 hours
Description: as §1

Crofton weed [7] = assay: Needle puncture test on Crofton weed with washes recovered from compound-treated soil; format: in vivo; conditions: after soil treatment (3 hours)
Description: Compounds 1, 2, 3, and 40 were dissolved in small amount of methanol and diluted with distilled water to concentration of 50 μg/mL. The solution was sprayed to the soil sample until the soil was wet but not overflows. After standing at room temperature for 3 hours, the soil sample was washed with water and methanol. The wash solution was collected and concentrated. Such process was repeated three times. The concentrated solutions were used for herbicidal activity test using the method of needle puncture on Crofton weed. Methanol water solution and pure water were used as control. The experiment for every sample was repeated six times. The spot diameters were measured with vernier caliper after the plant was kept under natural light at 25° C. for 24 hours (Table 11).

In the case of `CCC(C)C1NC(=O)C(C(C)=O)=C1O` (centres unmarked) [3-acetyl-5-sec-butyl-4-hydroxy-3-pyrrolin-2-one], the “killing monocotyledon and dicotyledonous weeds” value [1] is listed as “very effective”, the “inhibition to Hill reaction compared with DCMU” value (Hill reaction [2]) is listed as “much higher than the typical photosynthetic inhibitor” and the toxicity to rat (rat) is listed as 200 mg/kg.

With `CCC(C)C1NC(=O)CC1=O` (centres unmarked) [Compound 1] the “Avg. diameter of the spot after 24 h” value (Crofton weed [3]) was 1.97 ± 0.04 mm, the “Time of disease spot to occur” value (Crofton weed [3]) was 22.3 ± 0.77 h and the “Damage level” value (Crofton weed [4]) was 2. For the same compound, the “Activity of Hill Reaction” value (Hill reaction [5]) was 98.76 uMO2/mgChlh, the “PSII Activity of oxygen evolution” value (photosystem II) was 50.89 uMO2/mgChlh and the Fv/Fm [6] was 0.82. For the same compound, the “Average diameter of the spot after 24 h, H2O wash” value (shortened to “Average diameter … H2O wash”) (Crofton weed [7]) was 0.223 ± 0.077 mm and the “Average diameter of the spot after 24 h, Methanol wash” value (“Average diameter … Methanol wash” for short) (Crofton weed [7]) was 0.292 ± 0.041 mm.

For `CCCC(Cl)C1NC(=O)CC1=O` (centres unmarked) [Compound 2], the “Avg. diameter of the spot after 24 h” value (Crofton weed [3]) was 2.96 ± 0.01 mm, the “Time of disease spot to occur” value (Crofton weed [3]) was 22.0 ± 2.30 h and the “Damage level” value (Crofton weed [4]) was 2. The “Activity of Hill Reaction” value (Hill reaction [5]) was 69.41 uMO2/mgChlh, the “PSII Activity of oxygen evolution” value (photosystem II) was 37.02 uMO2/mgChlh and the Fv/Fm [6] was 0.84. The “Average diameter … H2O wash” value (Crofton weed [7]) was 0.280 ± 0.030 mm and the “Average diameter … Methanol wash” value (Crofton weed [7]) was 0.362 ± 0.012 mm.

For `CCC(C)C1NC(=O)C=C1O` (centres unmarked) [Compound 3], the “Avg. diameter of the spot after 24 h” value (Crofton weed [3]) was 2.31 ± 0.09 mm, the “Time of disease spot to occur” value (Crofton weed [3]) was 20.9 ± 1.01 h and the “Damage level” value (Crofton weed [4]) was 1. The “Activity of Hill Reaction” value (Hill reaction [5]) was 62.21 uMO2/mgChlh, the “PSII Activity of oxygen evolution” value (photosystem II) was 32.14 uMO2/mgChlh and the Fv/Fm [6] was 0.83. For the same compound, the “Average diameter … H2O wash” value (Crofton weed [7]) was 0.273 ± 0.062 mm and the “Average diameter … Methanol wash” value (Crofton weed [7]) was 0.334 ± 0.082 mm.

For `CCOCCC(=O)C1=C(O)C(C(C)CC)NC1=O` (centres unmarked) [Compound 45], the “Time of Disease spot” value (Crofton weed [3]) was 20.3 ± 0.57 h, the “Average diameter of spot after 24 h” value (Crofton weed [3]) was 2.73 ± 0.73 mm and the “Activity of Hill Reaction” value (Hill reaction [5]) was 41.00 uMO2/mgChlh. For the same compound, the “PSII Activity of oxygen evolution” value (photosystem II) was 27.04 uMO2/mgChlh and the Fv/Fm [6] was 0.79.

In the case of `CCC(C)C1NC(=O)C(C(=O)OCCc2ccccc2)=C1O` (centres unmarked) [Compound 46], the “Time of Disease spot” value (Crofton weed [3]) is reported as 22.1 ± 1.35 h, the “Average diameter of spot after 24 h” value (Crofton weed [3]) is reported as 2.31 ± 0.44 mm and the “Activity of Hill Reaction” value (Hill reaction [5]) is reported as 58.78 uMO2/mgChlh. For the same compound, the “PSII Activity of oxygen evolution” value (photosystem II) was 43.67 uMO2/mgChlh and the Fv/Fm [6] was 0.82.

With `CCC(C)C1NC(=O)C(C(=O)CCOc2ccccc2)=C1O` (centres unmarked) [Compound 47] the “Time of Disease spot” value (Crofton weed [3]) was 21.2 ± 1.88 h, the “Average diameter of spot after 24 h” value (Crofton weed [3]) was 2.12 ± 0.09 mm and the “Activity of Hill Reaction” value (Hill reaction [5]) was 67.99 uMO2/mgChlh. The “PSII Activity of oxygen evolution” value (photosystem II) was 49.01 uMO2/mgChlh and the Fv/Fm [6] was 0.82.

For `CCC(C)C1NC(=O)C(C(=O)Cc2ccccc2)=C1O` (centres unmarked) [Compound 51], the “Time of Disease spot” value (Crofton weed [3]) was 15.1 ± 1.82 h, the “Average diameter of spot after 24 h” value (Crofton weed [3]) was 3.28 ± 1.12 mm and the “Activity of Hill Reaction” value (Hill reaction [5]) was 52.23 uMO2/mgChlh. The “PSII Activity of oxygen evolution” value (photosystem II) was 32.15 uMO2/mgChlh and the Fv/Fm [6] was 0.81.

In the case of `CCC(C)C1NC(=O)C(C(=O)Cc2ccc([N+](=O)[O-])cc2)=C1O` (centres unmarked) [Compound 52], the “Time of Disease spot” value (Crofton weed [3]) is reported as 15.3 ± 1.72 h, the “Average diameter of spot after 24 h” value (Crofton weed [3]) is reported as 3.83 ± 1.03 mm and the “Activity of Hill Reaction” value (Hill reaction [5]) is reported as 53.13 uMO2/mgChlh. The “PSII Activity of oxygen evolution” value (photosystem II) was 36.86 uMO2/mgChlh and the Fv/Fm [6] was 0.82.

With `CCCCCC(C#N)C1NC(=O)C(=C(C)O)C1=O` (centres unmarked) [Compound 54] the “Time of Disease spot” value (Crofton weed [3]) was 11.30 ± 0.73 h, the “Average diameter of spot after 24 h” value (Crofton weed [3]) was 8.211 ± 0.101 mm and the “Activity of Hill Reaction” value (Hill reaction [5]) was 43.65 uMO2/mgChlh. For the same compound, the “PSII Activity of oxygen evolution” value (photosystem II) was 31.98 uMO2/mgChlh and the Fv/Fm [6] was 0.81.

With `CC(=O)C1C(=O)NC(C)C1=O` (centres unmarked) [Compound 57] the “Time of Disease spot” value (Crofton weed [3]) was 20.4 ± 0 h, the “Average diameter of spot after 24 h” value (Crofton weed [3]) was 1.98 ± 0.51 mm and the “Activity of Hill Reaction” value (Hill reaction [5]) was 63.42 uMO2/mgChlh. The “PSII Activity of oxygen evolution” value (photosystem II) was 35.13 uMO2/mgChlh and the Fv/Fm [6] was 0.82.
